# Test results taken from US10881110B2, “Herbicidal compositions comprising isoxazolo[5,4-b]pyridines” (BASF SE, priority 2014, dated 2021).
# Experiments:
# Experiment in all cases: greenhouse post-emergence herbicidal test
# CONAR = assay type: in vivo, Convolvulus arvensis; parameters: key: rating on a scale from 0 to 100; conditions: application rate a.i.: I.1 62.5 g/ha, B.30 (imazamox) 3.75 g/ha, alone or as mixture (composition 1.030)
# Description: (§1) The culture containers used were plastic pots containing medium loamy sand with approximately 4.6% of humus and 69.9% sand as substrate. The seeds of the test plants were sown separately for each species.
# (§2) For the post-emergence treatment, the test plants were grown to a plant height of from 1 to 15 cm, depending on the plant habit, and only then treated with the active compounds which had been suspended or emulsified in water. To this end, the test plants were either sown directly, and grown in the same containers, or they were first grown separately as seedlings and transplanted into the test containers a few days prior to treatment.
# (§3) Depending on the species, the plants were kept at 10-25° C. and 20-35° C., respectively.
# (§4) The test period extended over 1 to 3 weeks. During this time, the plants were tended and their response to the individual treatments was evaluated 20 days after treatment except mentioned otherwise.
# (§5) Evaluation was carried out using a scale from 0 to 100. 100 means no emergence of the plants, or complete destruction of at least the above-ground parts, and 0 means no damage or normal course of growth.
# (§6) The respective stated components A and B, and, if appropriate, C, were formulated as a 10% by weight strength emulsion concentrate and, with addition of the amount of solvent system, introduced into the spray liquor used for applying the active compound. In the examples, the solvent used was water.
# (§7) In the examples below, using the method of S. R. Colby (1967) “Calculating synergistic and antagonistic responses of herbicide combinations”, Weeds 15, p. 22 ff., the value E, which is expected if the activity of the individual active compounds is only additive, was calculated. E=X+Y−(X·Y/100)
# GERDI = assay type: in vivo, Geranium dissectum; parameters: key to herbicidal activity against GERDI found: rating on a scale from 0 to 100; conditions: post emergence
# Description: as §1, §2, §3, §4, §5, §6, §7
# VIOAR = assay type: in vivo, Viola arvensis; parameters: key to herbicidal activity against VIOAR found / herbicidal activity against VIOLA found: rating on a scale from 0 to 100; conditions: post emergence
# Description: as §1, §2, §3, §4, §5, §6, §7
# ABUTH = assay type: in vivo, Abutilon theophrast; parameters: key to herbicidal activity against ABUTH found: rating on a scale from 0 to 100; conditions: post emergence
# Description: as §1, §2, §3, §4, §5, §6, §7
# APESV = assay type: in vivo, Apera spica-venti; parameters: key to herbicidal activity against APESV found: rating on a scale from 0 to 100; conditions: post emergence
# Description: as §1, §2, §3, §4, §5, §6, §7
# ERICA = assay type: in vivo, Conyza canadensis; conditions: post emergence
# Description: as §1, §2, §3, §4, §5, §6, §7
# GALAP = assay type: in vivo, Galium aparine; parameters: key to herbicidal activity against GALAP found: rating on a scale from 0 to 100; conditions: post emergence
# Description: as §1, §2, §3, §4, §5, §6, §7
# POLCO = assay type: in vivo, Polygonum convolvulus; conditions: post emergence; applied alone at 6 g/ha a.i.
# Description: as §1, §2, §3, §4, §5, §6, §7
# ALOMY = assay type: in vivo, Alopecurus myosuroides; parameters: key to herbicidal activity against ALOMY found: rating on a scale from 0 to 100; conditions: post emergence
# Description: as §1, §2, §3, §4, §5, §6, §7
# IPOHE = assay type: in vivo, Ipomoea hederacea; parameters: key to herbicidal activity against IPOHE found: rating on a scale from 0 to 100; conditions: post emergence; for herbicidal activity against IPOHE found: g/ha a.i.: I.1 31.25
# Description: as §1, §2, §3, §4, §5, §6, §7
# KCHSC = assay type: in vivo, Kochia scoparia; parameters: key to herbicidal activity against KCHSC found: rating on a scale from 0 to 100; conditions: post emergence, g/ha a.i.: I.1 31.25
# Description: as §1, §2, §3, §4, §5, §6, §7
# MATCH = assay type: in vivo, Matricaria recutita; parameters: key to herbicidal activity against MATCH found: rating on a scale from 0 to 100; conditions: post emergence
# Description: as §1, §2, §3, §4, §5, §6, §7
# [1] = application rate a.i.: I.1 62.5 g/ha, B.30 (imazamox) 3.75 g/ha, alone or as mixture (composition 1.030)
# [2] = g/ha a.i.: I.1 31.25, B.24 2, mixture 31.25+2
# [3] = g/ha a.i.: I.1 125, B.24 2, mixture 125+2
# [4] = g/ha a.i.: I.1 62.5, B.20 4, mixture 62.5+4
smiles,measurement,setting,value
"COCc1cnc(C2=NC(C)(C(C)C)C(=O)N2)c(C(=O)O)c1 (stereo not shown) [B.30, imazamox]",herbicidal activity against CONAR found,CONAR,85
same,herbicidal activity against GERDI found,GERDI; [1],90
same,herbicidal activity against VIOAR found,VIOAR; [1],45
"CCSC(C)CC1CC(=O)C(/C(CC)=N/OC/C=C/Cl)=C(O)C1 (stereo not shown) [B.1, clethodim]",herbicidal activity against ABUTH found,ABUTH; applied alone at 6 g/ha a.i.,0
same,herbicidal activity against ABUTH found,ABUTH; applied alone at 12 g/ha a.i.,25
same,herbicidal activity against APESV found,APESV; applied alone at 6 g/ha a.i.,75
same,herbicidal activity against ERICA found,ERICA; applied alone at 12 g/ha a.i.,0
same,herbicidal activity against GALAP found,GALAP; applied alone at 12 g/ha a.i.,0
same,herbicidal activity against POLCO found,POLCO,0
"COc1cc(OC)nc(NC(=O)NS(=O)(=O)Nc2ccccc2C(=O)C2CC2)n1 [B.24, cyclosulfamuron]",herbicidal activity against ABUTH found,ABUTH; [2],85
same,herbicidal activity against ALOMY found,"ALOMY; g/ha a.i.: I.1 125, B.24 1, mixture 125+1",25
same,herbicidal activity against ALOMY found,ALOMY; [3],35
same,herbicidal activity against APESV found,"APESV; g/ha a.i.: I.1 31.25, B.24 1, mixture 31.25+1",0
same,herbicidal activity against IPOHE found,"IPOHE; B.24 1, mixture 31.25+1",75
same,herbicidal activity against KCHSC found,"KCHSC; B.24 1, mixture 31.25+1",45
same,herbicidal activity against KCHSC found,"KCHSC; B.24 2, mixture 31.25+2",45
same,herbicidal activity against MATCH found,MATCH; [2],65
same,herbicidal activity against MATCH found,MATCH; [3],65
"COc1cc(OC)nc(Oc2cccc(Oc3nc(OC)cc(OC)n3)c2C(=O)O)n1 [B.20, bispyribac-sodium]",herbicidal activity against ABUTH found,"ABUTH; g/ha a.i.: I.1 31.25, B.20 2, mixture 31.25+2",35
same,herbicidal activity against ABUTH found,"ABUTH; g/ha a.i.: I.1 31.25, B.20 4, mixture 31.25+4",65
same,herbicidal activity against ALOMY found,ALOMY; [4],55
same,herbicidal activity against ALOMY found,"ALOMY; g/ha a.i.: I.1 125, B.20 2, mixture 125+2",30
same,herbicidal activity against ALOMY found,"ALOMY; g/ha a.i.: I.1 125, B.20 4, mixture 125+4",55
same,herbicidal activity against APESV found,APESV; [4],60
same,herbicidal activity against IPOHE found,"IPOHE; B.20 2, mixture 31.25+2",30
CCC/C(=N\OCC)C1=C(O)CC(C2CCCSC2)CC1=O (stereo not shown) [cycloxidim],herbicidal activity against APESV found,"APESV; single active, 5 g/ha a.i.",30
same,herbicidal activity against GALAP found,"GALAP; single active, 5 g/ha a.i.",25
same,herbicidal activity against GERDI found,"GERDI; single active, 2.5 g/ha a.i.",0
same,herbicidal activity against GERDI found,"GERDI; single active, 5 g/ha a.i.",20
same,herbicidal activity against MATCH found,"MATCH; single active, 5 g/ha a.i.",65
same,herbicidal activity against VIOAR found,"VIOAR; single active, 2.5 g/ha a.i.",0
"CC1(C)CON(Cc2ccccc2Cl)C1=O [B.97, clomazone]",pest or weed control at 375 g/ha,"ALOMY; Alopecurus myosuroides, post-emergence, 480 h, B.97 alone 375 g/ha a.i., read-out: herbicidal activity against ALOMY found",45%
same,pest or weed control at 750 g/ha,"ALOMY; Alopecurus myosuroides, post-emergence, 480 h, B.97 alone 750 g/ha a.i., read-out: herbicidal activity against ALOMY found",60%
same,pest or weed control at 375 g/ha,"ERICA; Erigeron canadensis, post-emergence, 480 h, B.97 alone 375 g/ha a.i., read-out: herbicidal activity against ERICA found",50%
same,pest or weed control at 750 g/ha,"ERICA; Erigeron canadensis, post-emergence, 480 h, B.97 alone 750 g/ha a.i., read-out: herbicidal activity against ERICA found",65%
same,pest or weed control at 750 g/ha,"IPOHE; Ipomoea hederacea, post-emergence, 480 h, B.97 alone 750 g/ha a.i., read-out: herbicidal activity against IPOHE found",45%
same,pest or weed control at 375 g/ha,"VIOAR; Viola arvensis, post-emergence, B.97 alone 375 g/ha a.i., read-out: herbicidal activity against VIOAR found",85%
